Experiments:
[1] = in vitro medium, 37° C., cited from earlier work
[2] = K. Walter et al. (1995); cited from earlier work
[3] = In vivo pharmacokinetic study after oral (intragastric) administration in rats; conditions: rat, oral solution, 1 mg/kg
Description: Naked physostigmine solution (1 mg/kg) or physostigmine-loaded RG 502 microparticles suspension (10% drug loading) were fed intragastrically into the overnight-fasted rats (weight-280g) via a rigid dosing gavage needle into the posterior of the rat pharynx, directly into the stomach. Immediately before administration of the tablets and solutions, a 300 μL sample of blood was taken at what was t=0 hrs (pre-dose), through the exposed catheter. Subsequent samples were drawn from the catheter at intervals over a period of 48 hours after drug administration. After each withdrawal, an equal volume of 0.9% normal saline was injected back into the blood stream to minimize loss of body fluid. Water and food were available ad libitum in the metabolic cages. Each 300 μl volume of blood was collected in heparinised microcentrifuge tubes and centrifuged under 3000 g for 5 minutes at 4° C. to obtain the plasma. All plasma samples were stored at −70° C. in fresh heparinised microcentrifuge tubes. Physostigmine is extracted immediately from it prior to analysis by high performance liquid chromatography (HPLC) described by Zhao et al (2003) Journal of Chromatography B 784- 323-329). The WinNonlin® Version 3.2 (Pharsight Corporation, USA) was used to calculate the pharmacokinetic parameters based on the non-compartment model.

In the case of CNC(=O)Oc1ccc2c(c1)[C@]1(C)CCN(C)[C@@H]1N2C [physostigmine, Physostigmine], the physostigmine degraded ([1]; in 6 days) is listed as “about 40%”, the physostigmine degradation rate [1] is listed as 7 % per day and the elimination half-life [2] is listed as 12 to 40 min. The Tmax ([3]; plasma) was 40.8 min, the AUC ([3]; plasma, read-out: AUC (hr*μg/mL), Mean) was 0.77 µg·h/mL and the Cmax ([3]; plasma, read-out: Cmax (μg/mL), Mean) was 0.57 µg/mL. The half-life ([3]; plasma, read-out: Half life (hr), Mean (converted)) was 1.16 h, the “Cl (mL/hr/kg), Mean” value [3] was 998.86 mL/h/kg and the “Vd (mL/kg), Mean” value [3] was 1584.37 mL/kg.

— patent US20050013869A1, “Sustained release formulation for carbamates and a method therefor” (priority 2003, published 2005)
